In patent US7998987B2, “Inhibitors of c-Met and uses thereof” (Vertex Pharmaceuticals Incorporated, priority 2005, dated 2011):
Like-named read-outs stand apart in the source and are kept apart here.

Biological target: c-Met (Homo sapiens, UniProt P08581)
Test: Ki determination for the inhibition of c-Met kinase activity (standard coupled enzyme system)
Assay type: biochemical
Conditions: coupled enzyme system, 200 μM ATP, 80 nM c-Met, 30° C., read-out: c-Met Ki
Method in brief: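 The kinase (80 nM) turned over polyGluTyr (10 μM) with ATP (200 μM, added to start), coupled to NADH oxidation via pyruvate kinase/lactate dehydrogenase at pH 7.5 HEPES, 1.5% DMSO.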

c-Met, sequence (P08581 25-1390): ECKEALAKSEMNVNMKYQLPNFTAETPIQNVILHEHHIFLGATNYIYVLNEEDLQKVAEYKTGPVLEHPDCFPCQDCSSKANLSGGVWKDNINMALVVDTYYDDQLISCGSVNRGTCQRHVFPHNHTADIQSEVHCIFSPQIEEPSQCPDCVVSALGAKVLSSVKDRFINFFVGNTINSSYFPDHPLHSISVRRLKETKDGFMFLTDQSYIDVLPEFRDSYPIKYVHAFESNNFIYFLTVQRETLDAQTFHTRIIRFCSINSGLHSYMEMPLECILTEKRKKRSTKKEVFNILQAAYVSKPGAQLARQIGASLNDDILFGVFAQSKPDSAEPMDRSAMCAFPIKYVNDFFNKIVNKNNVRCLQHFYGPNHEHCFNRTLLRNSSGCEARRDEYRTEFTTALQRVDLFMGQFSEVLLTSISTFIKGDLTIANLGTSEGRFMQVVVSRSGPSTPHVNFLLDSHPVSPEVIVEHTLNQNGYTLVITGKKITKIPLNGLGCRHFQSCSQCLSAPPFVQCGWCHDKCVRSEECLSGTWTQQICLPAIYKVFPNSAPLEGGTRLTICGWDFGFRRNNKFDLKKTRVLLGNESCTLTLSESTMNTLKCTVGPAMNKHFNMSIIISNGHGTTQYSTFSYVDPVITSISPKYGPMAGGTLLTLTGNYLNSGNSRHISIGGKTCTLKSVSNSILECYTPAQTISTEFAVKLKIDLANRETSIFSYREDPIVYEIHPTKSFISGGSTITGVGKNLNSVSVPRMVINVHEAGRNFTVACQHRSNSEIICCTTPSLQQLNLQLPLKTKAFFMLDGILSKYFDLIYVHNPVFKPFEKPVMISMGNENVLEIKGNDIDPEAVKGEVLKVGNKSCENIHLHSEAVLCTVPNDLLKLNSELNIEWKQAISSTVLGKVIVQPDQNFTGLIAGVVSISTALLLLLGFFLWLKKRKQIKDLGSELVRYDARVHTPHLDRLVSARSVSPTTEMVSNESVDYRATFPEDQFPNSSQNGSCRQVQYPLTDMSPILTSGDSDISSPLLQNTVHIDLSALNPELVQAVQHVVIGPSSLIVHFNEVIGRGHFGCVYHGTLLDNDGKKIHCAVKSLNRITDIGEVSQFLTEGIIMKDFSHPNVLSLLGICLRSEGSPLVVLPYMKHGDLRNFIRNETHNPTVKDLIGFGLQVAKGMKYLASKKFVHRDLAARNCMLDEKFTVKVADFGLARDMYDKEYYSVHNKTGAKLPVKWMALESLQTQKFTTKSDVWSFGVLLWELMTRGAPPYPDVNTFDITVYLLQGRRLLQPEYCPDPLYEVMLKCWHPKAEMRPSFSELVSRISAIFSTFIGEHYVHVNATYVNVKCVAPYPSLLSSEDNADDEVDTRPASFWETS

Row | SMILES | Ki [µM] | Ki (10 μM polyGluTyr) [µM]
1 | Oc1ccc(Cc2nnc3sc(Nc4cccc(F)c4Cl)nn23)cc1Cl [Compound 103] |  | 0.1 to 2
2 | Oc1ccc(Cc2nnc3ccc(N4CCCCC4)nn23)cc1 [Compound 177] |  | 0.1 to 2
3 | C[C@@H](c1ccc(OC(=O)[C@@H](C)N)cc1)c1nnc2sc(Nc3cccc(Cl)c3)nn12 [Compound 167] |  | < 0.1
4 | Clc1cc(Cl)cc(Nc2ccc3nnc(Cc4ccc5c(c4)OCO5)n3n2)c1 [Compound 246] |  | 0.1 to 2
5 | COc1ccc(Cc2nnc3sc(-c4ccccc4)nn23)cc1 [Compound 3] |  | > 2
6 | Nc1nn2c(Cc3ccc(O)cc3)nnc2s1 [Compound 7] |  | 0.1 to 2
7 | CC(C)Oc1cccc(Nc2nn3c([C@@H](C)c4ccc(O)cc4)nnc3s2)c1 [Compound 173] |  | < 0.1
8 | Oc1ccc(Cc2nnc3sc(Nc4cccc(Cl)c4Cl)nn23)cc1 [Compound 45] |  | < 0.1
9 | COc1ccc([C@H](C)c2nnc3sc(Nc4cccc(F)c4)nn23)cc1 [Compound 158] |  | 0.1 to 2
10 | Oc1ccc(Cc2nnc3ccc(Nc4cc(Cl)cc(Cl)c4)nn23)cc1F [Compound 245] |  | < 0.1
11 | CC(C)[C@H](C)Nc1ccc2nnc(Cc3ccc(O)cc3)n2n1 [Compound 193] |  | 0.1 to 2
12 | Oc1cccc(Cc2nnc3sc(Nc4cccc(F)c4Cl)nn23)c1 [Compound 110] |  | 0.1 to 2
13 | COc1cccc(Nc2ccc3nnc(Cc4ccc(O)cc4)n3n2)c1 [Compound 184] |  | < 0.1
14 | COc1ccc(Cc2nnc3ccc(Nc4cccc(Cl)c4)nn23)cc1 [Compound 238] |  | < 0.1
15 | Oc1ccc(Cc2nnc3sc(Nc4cccc(F)c4)nn23)cc1 [Compound 59] |  | < 0.1
16 | CSc1cccc(Nc2nn3c(Cn4ccc5c(O)cccc54)nnc3s2)c1 [Compound 169] |  | < 0.1
17 | C[C@@H](c1ccc(O)cc1)c1nnc2sc(Nc3ccc(F)c(Cl)c3)nn12 [Compound 159] |  | < 0.1
18 | Oc1ccc(Cc2nnc3ccc(NCC4CCCCC4)nn23)cc1 [Compound 195] |  | 0.1 to 2
19 | Oc1ccc(Cc2nnc3ccc(NCCN4CCOCC4)nn23)cc1 [Compound 204] |  | > 2
20 | C[C@@H](c1ccc(O)cc1)c1nnc2sc(Nc3cncc(Cl)c3)nn12 [Compound 162] |  | < 0.1
21 | Clc1cccc(Nc2ccc3nnc(Cc4ccncc4)n3n2)c1 [Compound 240] |  | 0.1 to 2
22 | Oc1ccc(Cc2nnc3sc(Nc4cccnc4)nn23)cc1F [Compound 83] |  | 0.1 to 2
23 | CC(c1ccc(O)cc1)c1nnc2sc(Nc3cc(F)cc(F)c3)nn12 (stereo not shown) [Compound 133] |  | < 0.1
24 | COc1cccc(Nc2nn3c(Cc4ccc(O)c(OC)c4)nnc3s2)c1 [Compound 38] |  | 0.1 to 2
25 | O=C(Nc1nn2c(Cc3ccc(O)cc3)nnc2s1)c1ccccc1 [Compound 57] |  | > 2
26 | c1cc2c(cc1Cc1nnc3sc(NCC4CCCO4)nn13)OCO2 (stereo not shown) [Compound 42] |  | > 2
27 | CC(C)[C@@H](N)C(=O)Oc1ccc([C@H](C)c2nnc3sc(Nc4cccc(F)c4)nn23)cc1 [Compound 165] |  | < 0.1
28 | COc1cccc(Nc2nn3c(C(C)c4ccc(O)cc4)nnc3s2)c1 (stereo not shown) [Compound 37] |  | < 0.1

More lines, now with the values ahead:

Row | Ki [µM] | Ki (10 μM polyGluTyr) [µM] | SMILES
29 | > 2 |  | Fc1ccc(C2(c3nnc4ccc(Nc5cccc(Cl)c5)nn34)CCCC2)cc1 [Compound 416]
30 | < 0.1 |  | O=c1[nH]ccc2c1ccn2Cc1nnc2ccc(Nc3cccc(Cl)c3)nn12 [Compound 428]
31 | > 2 |  | COCCC(=O)N[C@@H]1CCCC[C@H]1Nc1ccc2nnc([C@@H](C)c3ccc(O)cc3)n2n1 [Compound 451]
32 |  | 0.1 to 2 | CC(C)C(CO)Nc1ccc2nnc(Cc3ccc(O)cc3)n2n1 (stereo not shown) [Compound 282]
33 | 0.1 to 2 |  | COC[C@@H](C)Nc1ccc2nnc(Cc3ccc(O)cc3)n2n1 [Compound 304]
34 | > 2 |  | CN(C)c1ccc(Cc2nnc3ccc(Nc4cccc(Cl)c4)nn23)cc1 [Compound 457]
35 | < 0.1 |  | Oc1ccc(Cc2nnc3n2N=C(c2cccs2)CS3)cc1 [Compound 543]
36 |  | 0.1 to 2 | OCc1cccc(Nc2ccc3nnc(Cc4ccc5c(c4)OCO5)n3n2)c1 [Compound 263]
37 | < 0.1 |  | Fc1ccc(Cc2nnc3ccc(Nc4cccc(Cl)c4)nn23)cc1 [Compound 402]
38 | > 2 |  | c1ccc(C2=Nn3c(Cc4ccncc4)nnc3SC2)cc1 [Compound 529]
39 | < 0.1 |  | CC(c1ccc(O)cc1)c1nnc2ccc(Nc3cccc(Cl)c3)nn12 (stereo not shown) [Compound 321]
40 | > 2 |  | Cc1nc2cc(OCc3nnc4ccc(Nc5cccc(Cl)c5)nn34)ccc2s1 [Compound 431]
41 | > 2 |  | COc1ccc(NCc2nnc3ccc(Nc4cccc(Cl)c4)nn23)cc1O [Compound 335]
42 | > 2 |  | C=CCc1ccccc1OCc1nnc2ccc(Nc3cccc(Cl)c3)nn12 [Compound 383]
43 |  | < 0.1 | OCCc1cccc(Nc2ccc3nnc(Cc4ccc(O)cc4)n3n2)c1 [Compound 264]
44 |  | 0.1 to 2 | OCc1cccc(Nc2ccc3nnc(Cc4ccc(O)c(F)c4)n3n2)c1 [Compound 260]
45 | > 2 |  | Clc1cccc(Nc2ccc3nnc(CCc4c[nH]cn4)n3n2)c1 [Compound 395]
46 | > 2 |  | Fc1ccc2[nH]cc(Cc3nnc4ccc(Nc5cccc(Cl)c5)nn34)c2c1 [Compound 459]
47 | < 0.1 |  | C[C@@H](c1ccc(O)cc1)c1nnc2ccc(Nc3ccc(F)c(Cl)c3)nn12 [Compound 426]
48 | < 0.1 |  | Oc1ccc(Cc2nnc3ccc(Nc4cc(F)cc(F)c4)nn23)cc1F [Compound 298]

Row | Ki [µM] | Ki (10 μM polyGluTyr) [µM] | SMILES
49 | < 0.1 |  | C[C@@H](c1ccc(O)cc1)c1nnc2ccc(NC3CCCC(C(F)(F)F)C3)nn12 (stereo partly shown) [Compound 521]
50 |  | 0.1 to 2 | CC(O)c1cccc(Nc2ccc3nnc(Cc4ccc5c(c4)OCO5)n3n2)c1 (stereo not shown) [Compound 258]
51 | 0.1 to 2 |  | CC1(C)CC(Nc2ccc3nnc(Cc4ccc(O)cc4)n3n2)CCO1 (stereo not shown) [Compound 302]
52 |  | 0.1 to 2 | CC1CCCC(Nc2ccc3nnc(Cc4ccc(O)cc4)n3n2)C1C (stereo not shown) [Compound 270]
53 | 0.1 to 2 |  | Clc1cccc(Nc2ccc3nnc(CNc4ccc5cn[nH]c5c4)n3n2)c1 [Compound 487]
54 | < 0.1 |  | Clc1cccc(Nc2ccc3nnc(CNc4n[nH]c5ncccc45)n3n2)c1 [Compound 519]
55 | > 2 |  | CN1C2CCC1CC(Nc1ccc3nnc(Cc4ccc(O)cc4)n3n1)C2 (stereo not shown) [Compound 417]
56 | < 0.1 |  | COC(=O)c1ccc(OCc2nnc3ccc(Nc4cccc(Cl)c4)nn23)c(N)c1 [Compound 433]
57 | > 2 |  | NC(=O)c1cc(Cc2nnc3ccc(Nc4cccc(Cl)c4)nn23)ccc1F [Compound 476]
58 |  | > 2 | Cc1cc(C)cc(Nc2ccc3nnc(Cc4ccncc4)n3n2)c1 [Compound 249]
59 | > 2 |  | CC1=Nn2c(Cc3ccc(O)cc3)nnc2SC1C (stereo not shown) [Compound 536]
60 | > 2 |  | CS(=O)(=O)Nc1cccc(Cc2nnc3n2N=C(c2ccccc2)CS3)c1 [Compound 526]
61 | > 2 |  | Clc1cccc(Nc2ccc3nnc(Cn4ccc5cccnc54)n3n2)c1 [Compound 462]
62 | > 2 |  | Clc1ccc(OCc2nnc3ccc(Nc4cccc(Cl)c4)nn23)cc1 [Compound 380]
63 |  | 0.1 to 2 | CC(C)CC(C)Nc1ccc2nnc(Cc3ccc(O)cc3)n2n1 (stereo not shown) [Compound 279]
64 | 0.1 to 2 |  | CCc1cccc(Nc2ccc3nnc(Cc4ccc(OC)cc4)n3n2)c1 [Compound 291]
65 | > 2 |  | COc1ccc(Cc2nnc3n2N=C(c2ccccc2)CS3)cc1F [Compound 531]
66 | < 0.1 |  | Oc1ccc(Cc2nnc3n2N=C(c2ccc4c(c2)OCO4)CS3)cc1 [Compound 540]
67 | 0.1 to 2 |  | CC(C)(C)Nc1ccc2nnc(Cc3ccc(O)cc3)n2n1 [Compound 401]
